Where two headings read alike, the source gives them in different places.
Key:
human TLR8 = target: T1, human TLR8 (Homo sapiens, UniProt Q9NR97); test: Reporter gene assay, HEK293-TLR8 (NF-kB-driven luciferase); assay type: cell-based; details: HEK293-TLR8; read-out: EC50 in HEK293-TLR8 assay
T1 construct: expressed in transfected cells; host or cells: HEK 293
T1 sequence (Q9NR97 27-1041): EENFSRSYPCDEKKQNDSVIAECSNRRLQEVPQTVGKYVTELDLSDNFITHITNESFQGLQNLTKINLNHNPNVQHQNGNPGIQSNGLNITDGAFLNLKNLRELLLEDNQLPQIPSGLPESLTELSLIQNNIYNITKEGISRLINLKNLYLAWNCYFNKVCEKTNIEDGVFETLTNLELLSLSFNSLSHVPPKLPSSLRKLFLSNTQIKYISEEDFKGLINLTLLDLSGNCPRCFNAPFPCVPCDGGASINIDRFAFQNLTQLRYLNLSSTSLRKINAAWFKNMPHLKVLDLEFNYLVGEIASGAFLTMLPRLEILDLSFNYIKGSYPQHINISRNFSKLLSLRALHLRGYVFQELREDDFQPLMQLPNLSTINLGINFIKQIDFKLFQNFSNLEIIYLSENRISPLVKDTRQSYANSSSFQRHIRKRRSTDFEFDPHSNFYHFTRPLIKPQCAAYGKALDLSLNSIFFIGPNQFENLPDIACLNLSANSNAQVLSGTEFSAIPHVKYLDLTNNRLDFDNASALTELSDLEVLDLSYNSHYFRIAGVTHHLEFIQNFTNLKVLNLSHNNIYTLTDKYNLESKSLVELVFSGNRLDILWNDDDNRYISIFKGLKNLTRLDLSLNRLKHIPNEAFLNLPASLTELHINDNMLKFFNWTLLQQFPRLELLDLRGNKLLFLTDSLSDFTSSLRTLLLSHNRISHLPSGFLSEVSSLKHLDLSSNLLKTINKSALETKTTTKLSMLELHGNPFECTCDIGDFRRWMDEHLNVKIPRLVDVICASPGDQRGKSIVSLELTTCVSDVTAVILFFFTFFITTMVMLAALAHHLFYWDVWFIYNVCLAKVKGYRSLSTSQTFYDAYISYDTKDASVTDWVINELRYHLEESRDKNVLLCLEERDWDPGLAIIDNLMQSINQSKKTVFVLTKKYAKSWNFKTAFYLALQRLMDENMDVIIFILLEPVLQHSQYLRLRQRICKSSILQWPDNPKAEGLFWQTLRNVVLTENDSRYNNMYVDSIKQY
Protocol: (§1) Human embryonic kidney 293 (HEK 293) cells are stably transfected with human TLR7 or TLR8 and an NF-kB-driven luciferase reporter vector (pNifty-Luciferase). As a control assay, normal Hek293 transfected with pNifty-Luc are used. Cells are cultured in DMEM supplemented with 2 mM L-glutamine, 10% heart inactivated FBS, 1% penicillin and streptomycin, 2 μg/ml puromycin (InvivoGen #ant-pr-5) and 5 μg/ml of blasticidin (Invitrogen #46-1120). Bright-Glo™ Luciferase assay buffer and substrate are supplied by Promega #E263B and #E264B (assay substrate and buffer respectively). 384 well clear-bottom plates are supplied by Greiner bio-one (#789163-G) and are GNF custom bar-coded plates.
(§2) Cells are plated at 25,000 cells/well in 384-well plates in a final volume of 50 μl of media. Cells are allowed to adhere to the plates after overnight (18 hours) culture at 37° C. 5% CO2. Serially diluted experimental and positive control compounds are then dispensed to each well and incubated for 7 hours at 37° C. 5% CO2. Cells stimulated with DMSO alone also serve as negative controls. After the incubation, 30 μl of the pre-mix assay buffer and substrate buffer are added to each well according to manufacturer's instructions. The luminescence signal is read on a CLIPR machine with an integration time of 20 seconds per plate.
(§3) Dose response curves are generated for each compound and EC50 values were determined as the concentration that gives 50% of the maximal signal.

human PBMC = test: Human peripheral blood mononuclear cell assay, IL-6 (IL-6 hPBMC); assay type: cell-based; details: IL-6 levels
Protocol: The bioactivity of the described compounds are tested in the human peripheral blood assay (human PBMC) using a panel of independent normal human donors according to approved guidelines by the institutional review committee. Human PBMC are isolated from freshly peripheral blood using a Ficoll density gradient (GE healthcare 17-1440-03). 30-35 mLs of peripheral human blood are layered onto 15 mLs of Ficoll in 50 ml conical tubes, followed by centrifugation at 1800 rpm (Eppendorf Centrifuge 5810R with biohazard caps over the tube buckets) at room temperature for 30 minutes with no acceleration and no brake. The buffy layers are then collected and transferred onto new 50 ml conical tubes and washed twice in complete media consisting of RAMI 1640 (11875085 from Invitrogen Corporation, Carlsbad, Calif.) supplemented with 10% heat inactivated fetal bovine serum (Gibco 10099-141), 1% Pen-Strep (Gibco#15140-122), 1 mM non essential amino acids (Gibco#11140-050), 1 mM sodium pyruvate (Gibco#11360-070), 2 mM L-Glutamine (Gibco#25030-081) and 1 mM HEPES (Gibco#15630-080). Viable cells are then counted using trypan blue staining, plated in 96 well flat bottom plates (Becton Dickinson #353070) at 2×10^5 cells per well in 200 μl total volume of complete media. Compounds are then added in a 10 point dose response format starting at 100 μM, 3 fold dilution. Negative controls wells received equal concentration of DMSO. Culture supernatants are collected after 18-24 hours incubation at 37° C., 5% CO2, stored at −20° C. until further use.
IL-6 levels in the culture supernatants are measured using a Luminex kit (Biorad). Data analysis is performed using Prism software from GraphPad (San Diego, Calif.). Dose response curves are generated for each compound and EC50 values are determined as the concentration that gives 50% of the maximal signal.

human TLR7 = target: T2, human TLR7 (Homo sapiens, UniProt Q9NYK1); test: Reporter gene assay, HEK293-TLR7 (NF-kB-driven luciferase); assay type: cell-based
T2 construct: expressed in transfected cells; host or cells: HEK 293
T2 sequence (Q9NYK1 27-1049): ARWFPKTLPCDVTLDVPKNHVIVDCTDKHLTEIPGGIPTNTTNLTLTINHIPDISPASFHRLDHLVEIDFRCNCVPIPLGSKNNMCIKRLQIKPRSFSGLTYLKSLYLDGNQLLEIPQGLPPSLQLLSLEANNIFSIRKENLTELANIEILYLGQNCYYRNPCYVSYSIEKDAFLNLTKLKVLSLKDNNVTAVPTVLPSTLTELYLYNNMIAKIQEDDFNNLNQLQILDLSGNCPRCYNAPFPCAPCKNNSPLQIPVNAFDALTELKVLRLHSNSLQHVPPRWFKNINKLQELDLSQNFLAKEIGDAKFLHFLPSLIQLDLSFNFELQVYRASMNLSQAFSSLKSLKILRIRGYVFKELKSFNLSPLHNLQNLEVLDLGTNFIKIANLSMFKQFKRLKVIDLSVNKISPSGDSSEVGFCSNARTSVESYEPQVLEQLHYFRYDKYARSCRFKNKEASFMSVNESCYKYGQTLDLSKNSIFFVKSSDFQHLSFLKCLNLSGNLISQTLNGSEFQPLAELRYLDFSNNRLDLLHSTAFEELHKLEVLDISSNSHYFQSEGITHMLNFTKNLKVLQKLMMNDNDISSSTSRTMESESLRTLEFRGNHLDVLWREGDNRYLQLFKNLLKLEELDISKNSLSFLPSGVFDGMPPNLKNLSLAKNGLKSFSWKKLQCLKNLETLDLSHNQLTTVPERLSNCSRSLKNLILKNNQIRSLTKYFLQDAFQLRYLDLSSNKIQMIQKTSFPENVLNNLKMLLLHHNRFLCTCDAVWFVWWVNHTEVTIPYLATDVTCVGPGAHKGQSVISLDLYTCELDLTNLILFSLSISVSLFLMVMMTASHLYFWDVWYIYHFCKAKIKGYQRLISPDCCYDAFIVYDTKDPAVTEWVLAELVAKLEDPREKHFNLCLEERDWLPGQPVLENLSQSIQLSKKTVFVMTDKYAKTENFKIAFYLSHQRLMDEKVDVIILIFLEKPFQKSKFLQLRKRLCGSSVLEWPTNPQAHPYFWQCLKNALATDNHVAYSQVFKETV
Protocol: as §1, §2, §3

[1] = test system: N. meningitidis serogroup B strain NZ98; test: In vivo enhancement of immune response to 3MenB vaccine, serum bactericidal antibody (SBA) titer; details: for protective response in the mice (SBA titer of >1000 correlates with protection): 100 μg compound with 3MenB/MF59, NZ98 strain
Protocol: In a second experiment, the dose response of one compound, Example No. 47, was tested using the same protocol. […] The SBA titers were measured in all cases using the standard CFU method. The dose of each compound in μg is indicated on the left of FIG. 2.
FIG. 5 summarizes the data from the six total experiments. A titer of >1000 correlates with immunization providing protection against the pathogen tested in the SBA titer (i.e., the NZ/98 N. meningitidis serogroup B strain).

[2] = HEK293-TLR7, read-out: EC50 in HEK293-TLR7 assay

SMILES	EC50 (human TLR8) [µM]	EC50 (human PBMC) [µM]	EC50 (human TLR7; [2]) [µM]	protective response in the mice (SBA titer of >1000 correlates with protection) [1]	difference in SBA titer, immunization with a CpG oligo versus the compound ([1]; mice, by p-value)	EC50 (human TLR7; TLR-7 stimulation, read-out: Human TLR-7 EC50) [µM]
Nc1nc2ccccc2c2cccnc12 [Example 1, Benzo[f][1,7]naphthyridin-5-amine]	14	0.84	> 100			
Cc1ccc2c(c1)nc(N)c1ncccc12 [Example 5, 8-methylbenzo[f][1,7]naphthyridin-5-amine]	9.01	0.396	15.8			
COc1ccc(CCc2cnc3c(N)nc4cc(C)ccc4c3c2)c(C)c1 [Example 49, 2-(4-methoxy-2-methylphenethyl)-8-methylbenzo[f][1,7]naphthyridin-5-amine]				protective response		
Nc1nc2ccccc2c2cc(CCc3ccccc3)cnc12 [Example 33, 2-phenethylbenzo[f][1,7]naphthyridin-5-amine]		2.28	2.44			
Nc1nc2cc(F)ccc2c2cccnc12 [Example 14, 8-fluorobenzo[f][1,7]naphthyridin-5-amine]	37	6.38				
Cc1ccc(CCc2cnc3c(N)nc4ccccc4c3c2)c(C)c1 [Example 47, 2-(2,4-dimethylphenethyl)benzo[f][1,7]naphthyridin-5-amine]				protective response	did not produce a statistically significant difference	0.361
Cc1ccc2c(c1)nc(N)c1ncc(CCc3ccc(N(C)C)cc3)cc12 [Example 169, 2-(4-(dimethylamino)phenethyl)-8-methylbenzo[f][1,7]naphthyridin-5-amine]				protective response		
CCc1cnc2c(N)nc3ccccc3c2c1 [Example 30, 2-ethylbenzo[f][1,7]naphthyridin-5-amine]	13	2.28	8.64			

Source: patent publication US8466167B2, “Compounds and compositions as TLR activity modulators” (IRM LLC, priority 2008, dated 2013)
